The target of this experiment is recombinant 17β-HSD13 protein (Homo sapiens (Human), UniProt Q7Z5P4). Description: 17β-HSD13 biochemical assay (NAD+/NADH Glo chemiluminescence). As to conditions: 17β-HSD13 50 nM, NAD+ 10 mM, β-estradiol 20 μM, 2 hours room temperature. How it is done: 17β-HSD13 biochemical assays are generically described in patents WO 2022/020730, WO 2021/003295, and WO 2023/023310. More specifically, recombinant 17β-HSD13 protein was assayed in a buffer containing 200 mM Tris pH 7.5, 0.01% Triton X-100, and 0.02% BSA into a 384-well assay plate. Compounds were incubated with 17β-HSD13 (final 50 nM) and NAD+ (final 10 mM) at room temperature for 1 h prior to substrate addition. The assay reaction was then initiated by addition of β-estradiol (final 20 μM), and the reaction mixture was incubated for 2 hours at room temperature. Product formation was detected with chemiluminescence by adding equal volume of NAD+/NADH Glo reagent (Promega, #G9062) and read on a PHERAstar microplate reader (BMG LABTECH). IC50 values were determined with GraphPad Prism®, where log-transformed concentration values and the inhibition data were fitted to a four-parameter logistic equation. Y=Bottom+(Top−Bottom)/(1+10^((Log IC50−X)*HillSlope)). The original, % control, or % inhibition data are represented by Y along with their minimal (Bottom) and maximal (Top) values. The inhibitor concentration is represented by X, IC50 is the concentration at 50% maximal value, and Hill Slope is the slope factor.

The values below come from patent publication US20250026745A1 (Bluejay Therapeutics, Inc., priority 2023, published 2025).

As a reminder, the IC50 is the midpoint of a concentration-inhibition curve.

Chain of recombinant 17β-HSD13 protein (Q7Z5P4 20-300): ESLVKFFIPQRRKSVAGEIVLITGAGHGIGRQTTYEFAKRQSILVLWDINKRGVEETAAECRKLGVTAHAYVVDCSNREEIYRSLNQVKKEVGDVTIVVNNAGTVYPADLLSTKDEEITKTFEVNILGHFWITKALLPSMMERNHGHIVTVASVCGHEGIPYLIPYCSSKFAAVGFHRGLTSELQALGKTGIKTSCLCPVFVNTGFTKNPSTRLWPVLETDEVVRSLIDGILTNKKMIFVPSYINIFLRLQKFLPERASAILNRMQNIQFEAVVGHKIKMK

In the case of `O=C1N(Cc2ccccc2)C(=O)C2(CC2)N1Cc1nnc(-c2ccc(F)c(O)n2)s1` [Compound I-74, 6-benzyl-4-((5-(5-fluoro-6-hydroxypyridin-2-yl)-1,3,4-thiadiazol-2-yl)methyl)-4,6-diazaspiro[2.4]heptane-5,7-dione], the half-maximal inhibitory concentration (IC50) amounted to 147 nM.
To `O=C1N(CC(F)(F)F)C(=O)C2(CC2)N1Cc1nnc(-c2cc(C(F)(F)F)c(F)c(O)n2)s1` [Compound I-60, 4-((5-(5-fluoro-6-hydroxy-4-(trifluoromethyl)pyridin-2-yl)-1,3,4-thiadiazol-2-yl)methyl)-6-(2,2,2-trifluoroethyl)-4,6-diazaspiro[2.4]heptane-5,7-dione] belongs 2960 nM; to `O=C1N(Cc2ccccc2)C(=O)C2(CC2)N1Cc1nnc(-c2cc(C3CC3)c(F)c(O)c2F)s1` [Compound I-63, 6-benzyl-4-((5-(5-cyclopropyl-2,4-difluoro-3-hydroxyphenyl)-1,3,4-thiadiazol-2-yl)methyl)-4,6-diazaspiro[2.4]heptane-5,7-dione], 18 nM; to `O=C1N(c2ccccc2)C(=O)C2(CC2)N1Cc1nnc(-c2ccc(F)c(O)c2F)s1` [Compound I-85, 4-((5-(2,4-difluoro-3-hydroxyphenyl)-1,3,4-thiadiazol-2-yl)methyl)-6-phenyl-4,6-diazaspiro[2.4]heptane-5,7-dione], 13.2 nM.
In the case of `O=C1N(C(c2ccc(F)cc2F)C(F)(F)F)C(=O)C2(CC2)N1Cc1nnc(-c2ccc(F)c(O)n2)s1` (centres unmarked) [Compound I-89, 6-(1-(2,4-difluorophenyl)-2,2,2-trifluoroethyl)-4-((5-(5-fluoro-6-hydroxypyridin-2-yl)-1,3,4-thiadiazol-2-yl)methyl)-4,6-diazaspiro[2.4]heptane-5,7-dione], the 50% inhibitory concentration (IC50) was 15.6 nM.
Consider `CC[C@@H](C)N1C(=O)N(Cc2nnc(-c3ccc(F)c(O)n3)s2)C2(CC2)C1=O` [Compound I-77, (R)-6-(sec-butyl)-4-((5-(5-fluoro-6-hydroxypyridin-2-yl)-1,3,4-thiadiazol-2-yl)methyl)-4,6-diazaspiro[2.4]heptane-5,7-dione], for which the half-maximal inhibitory concentration (IC50) was determined as 1060 nM.
Regarding `CC[C@H](C)N1C(=O)N(Cc2nnc(-c3ccc(F)c(O)n3)s2)C2(CC2)C1=O` [Compound I-78, (S)-6-(sec-butyl)-4-((5-(5-fluoro-6-hydroxypyridin-2-yl)-1,3,4-thiadiazol-2-yl)methyl)-4,6-diazaspiro[2.4]heptane-5,7-dione], the IC50 was 934 nM.
On to `O=C1N(C(c2ccccc2)c2ccccc2)C(=O)C2(CC2)N1Cc1nnc(-c2ccc(F)c(O)c2F)s1` [Compound I-95, 6-benzhydryl-4-((5-(2,4-difluoro-3-hydroxyphenyl)-1,3,4-thiadiazol-2-yl)methyl)-4,6-diazaspiro[2.4]heptane-5,7-dione], for which the IC50 is 62 nM.
To `O=C1N(Cc2ccccc2)C(=O)C2(CC2)N1Cc1nnc(-c2cc(C(F)(F)F)c(F)c(O)n2)s1` [Compound I-61, 6-benzyl-4-((5-(5-fluoro-6-hydroxy-4-(trifluoromethyl)pyridin-2-yl)-1,3,4-thiadiazol-2-yl)methyl)-4,6-diazaspiro[2.4]heptane-5,7-dione] belongs 505 nM; to `O=C1N(CC(F)F)C(=O)C2(CC2)N1Cc1nnc(-c2ccc(F)c(O)c2F)s1` [Compound I-92, 4-((5-(2,4-difluoro-3-hydroxyphenyl)-1,3,4-thiadiazol-2-yl)methyl)-6-(2,2-difluoroethyl)-4,6-diazaspiro[2.4]heptane-5,7-dione], 14.3 nM; to `CNC(=O)c1ccc(CN2C(=O)N(Cc3nnc(-c4ccc(F)c(O)c4F)s3)C3(CC3)C2=O)cc1` [Compound I-93, 4-((4-((5-(2,4-difluoro-3-hydroxyphenyl)-1,3,4-thiadiazol-2-yl)methyl)-5,7-dioxo-4,6-diazaspiro[2.4]heptan-6-yl)methyl)-N-methylbenzamide], 75.4 nM.
With `CC#CC(N1C(=O)N(Cc2nnc(-c3ccc(F)c(O)c3F)s2)C2(CC2)C1=O)C(F)(F)F` (centres unmarked) [Compound I-94, 4-((5-(2,4-difluoro-3-hydroxyphenyl)-1,3,4-thiadiazol-2-yl)methyl)-6-(1,1,1-trifluoropent-3-yn-2-yl)-4,6-diazaspiro[2.4]heptane-5,7-dione], the IC50 was determined as 6.77 nM.
In the case of `O=C1N(CCC(F)(F)F)C(=O)C2(CC2)N1Cc1nnc(-c2ccc(F)c(O)c2F)s1` [Compound I-29, 4-((5-(2,4-difluoro-3-hydroxyphenyl)-1,3,4-thiadiazol-2-yl)methyl)-6-(3,3,3-trifluoropropyl)-4,6-diazaspiro[2.4]heptane-5,7-dione], the IC50 is 18.6 nM.
In the case of `C[C@H](c1ccccc1)N1C(=O)N(Cc2nnc(-c3ccc(F)c(O)n3)s2)C2(CC2)C1=O` [Compound I-79, (R)-4-((5-(5-fluoro-6-hydroxypyridin-2-yl)-1,3,4-thiadiazol-2-yl)methyl)-6-(1-phenylethyl)-4,6-diazaspiro[2.4]heptane-5,7-dione], the IC50 was determined as 122 nM.
With `O=C1N(CC(F)(F)F)C(=O)C2(CC2)N1Cc1nnc(-c2nc(C(F)(F)F)c(F)c(O)c2F)s1` [Compound I-58, 4-((5-(3,5-difluoro-4-hydroxy-6-(trifluoromethyl)pyridin-2-yl)-1,3,4-thiadiazol-2-yl)methyl)-6-(2,2,2-trifluoroethyl)-4,6-diazaspiro[2.4]heptane-5,7-dione], the IC50 was 293 nM.
In the case of `O=C1N(CC(F)(F)F)C(=O)C2(CC2)N1Cc1nnc(-c2cc(C(F)(F)F)c(F)c(O)c2F)s1` [Compound I-56, 4-((5-(2,4-difluoro-3-hydroxy-5-(trifluoromethyl)phenyl)-1,3,4-thiadiazol-2-yl)methyl)-6-(2,2,2-trifluoroethyl)-4,6-diazaspiro[2.4]heptane-5,7-dione], the concentration for half-maximal inhibition (IC50) amounted to 12.5 nM.
On to `O=C1N(CC(F)(F)F)C(=O)C2(CC2)N1Cc1nnc(-c2cc(C3CC3)c(F)c(O)c2F)s1` [Compound I-62, 4-((5-(5-cyclopropyl-2,4-difluoro-3-hydroxyphenyl)-1,3,4-thiadiazol-2-yl)methyl)-6-(2,2,2-trifluoroethyl)-4,6-diazaspiro[2.4]heptane-5,7-dione], for which the IC50 worked out at 84.9 nM.
As to `N#Cc1ccccc1CN1C(=O)N(Cc2nnc(-c3ccc(F)c(O)c3Cl)s2)C2(CC2)C1=O` [Compound I-38, 2-((4-((5-(2-chloro-4-fluoro-3-hydroxyphenyl)-1,3,4-thiadiazol-2-yl)methyl)-5,7-dioxo-4,6-diazaspiro[2.4]heptan-6-yl)methyl)benzonitrile], the half-maximal inhibitory concentration (IC50) stood at 39.4 nM.
As for `O=C1N(C(c2ccc(F)cc2F)C(F)(F)F)C(=O)C2(CC2)N1Cc1nnc(-c2ccc(F)c(O)c2Cl)s1` (single isomer, unassigned) [Compound I-54B], the IC50 amounted to 8.43 nM.
In the case of `CC(C)N1C(=O)N(Cc2nnc(-c3ccc(F)c(O)n3)s2)C2(CC2)C1=O` [Compound I-76, 4-((5-(5-fluoro-6-hydroxypyridin-2-yl)-1,3,4-thiadiazol-2-yl)methyl)-6-isopropyl-4,6-diazaspiro[2.4]heptane-5,7-dione], the IC50 came to 1390 nM.
Take `CCN1C(=O)N(Cc2nnc(-c3cnc(Cl)c(O)c3)s2)C2(CC2)C1=O` [Compound I-12, 4-((5-(6-chloro-5-hydroxypyridin-3-yl)-1,3,4-thiadiazol-2-yl)methyl)-6-ethyl-4,6-diazaspiro[2.4]heptane-5,7-dione]: the IC50 was 323 nM.
To `O=C1N([C@@H](c2ccccc2)C(F)(F)F)C(=O)C2(CC2)N1Cc1nnc(-c2ccc(F)c(O)n2)s1` [Compound I-88, (S)-4-((5-(5-fluoro-6-hydroxypyridin-2-yl)-1,3,4-thiadiazol-2-yl)methyl)-6-(2,2,2-trifluoro-1-phenylethyl)-4,6-diazaspiro[2.4]heptane-5,7-dione] belongs 29.1 nM; to `CC(C)(C)N1C(=O)N(Cc2nnc(-c3ccc(F)c(O)c3F)s2)C2(CC2)C1=O` [Compound I-84, 6-(tert-butyl)-4-((5-(2,4-difluoro-3-hydroxyphenyl)-1,3,4-thiadiazol-2-yl)methyl)-4,6-diazaspiro[2.4]heptane-5,7-dione], 4.07 nM.
For `O=C1N(Cc2nnc(-c3ccc(F)c(O)c3Cl)s2)C2(CC2)C(=O)N1C1(c2ccccc2)CC1` [Compound I-103, 4-((5-(2-chloro-4-fluoro-3-hydroxyphenyl)-1,3,4-thiadiazol-2-yl)methyl)-6-(1-phenylcyclopropyl)-4,6-diazaspiro[2.4]heptane-5,7-dione], the IC50 was determined as 4.39 nM.
On to `O=C1N(CC(F)(F)F)C(=O)C2(CC2)N1Cc1nnc(-c2cc(C(F)(F)F)cc(O)c2F)s1` [Compound I-39, 4-((5-(2-fluoro-3-hydroxy-5-(trifluoromethyl)phenyl)-1,3,4-thiadiazol-2-yl)methyl)-6-(2,2,2-trifluoroethyl)-4,6-diazaspiro[2.4]heptane-5,7-dione], for which the IC50 was 8.45 nM.
For the molecule `C[C@@H](c1ccccc1)N1C(=O)N(Cc2nnc(-c3ccc(F)c(O)n3)s2)C2(CC2)C1=O` [Compound I-80, (S)-4-((5-(5-fluoro-6-hydroxypyridin-2-yl)-1,3,4-thiadiazol-2-yl)methyl)-6-(1-phenylethyl)-4,6-diazaspiro[2.4]heptane-5,7-dione], the IC50 came out at 76.8 nM.
